In publication PMC6651341, “EDB-FN Targeted Peptide–Drug Conjugates for Use against Prostate Cancer” (International Journal of Molecular Sciences, 2019):
“And” between values parts separate entries of the source, which are not always exact repeats. Equal entries are not always repeated. Where a SMILES comes first, the peptide text is derived from it. Bridges are numbered along the chain shown (N, C = ends). [ ]: non-standard residue; d: D form. The star is where a group is joined. X1 = CC(=O)O[C@@]12CO[C@@H]1C[C@H](O)[C@@]1(C)C(=O)[C@H](O)C3=C(C)[C@@H](OC(=O)[C@H](OC(=O)CCNC(=O)C4CCC(CN5C(=O)CC(*)C5=O)CC4)[C@@H](NC(=O)OC(C)(C)C)c4ccccc4)C[C@@](O)([C@@H](OC(=O)c4ccccc4)[C@H]21)C3(C)C; Doxorubicin(Traut) = COc1cccc2c1C(=O)c1c(O)c3c(c(O)c1C2=O)C[C@@](O)(C(=O)CO)C[C@@H]3O[C@H]1C[C@H](NC(=N)CCCS*)[C@H](O)[C@H](C)O1; Ahx = NCCCCCC(=O)O

Experiments:
[1] = Stability under redox conditions with dithiothreitol (DTT); format: physicochemical; conditions: PBS pH 7.4, 12 equiv DTT (0.12 mM DTT, 0.010 mM peptide), analytical HPLC 214 nm, % remaining from AUC
Protocol: (§1) The stability of peptide–drug conjugate 13 was evaluated in the phosphate buffered saline (PBS). The pH of PBS was adjusted to 6.8, 7.0, 7.4 using HCl and NaOH as needed. In brief, 250 µL of 1 × PBS was mixed with 45 µL of 0.25 mM Dox-peptide conjugate 13. The mixture was incubated at 37 °C in a water bath covered with aluminum foil. An aliquot (40 µL) was removed at different time intervals, such as 4, 24, and 84 h and analyzed using analytical RP-HPLC at 490 nm. The percentage of the remained peptide was calculated using the area under the curve (AUC) by integrating the chromatogram in analytical HPLC. For evaluation of stability in DTT, a solution of DTT (0.120 mM) was prepared using PBS (pH 7.4). A solution of compounds (1, 8, and 13 at 1 mM) was prepared in PBS (pH = 7.4). A volume of 45 µL of the peptide was added to 2.250 mL of PBS in a UV-blocking glass vial. The glass vials were put under nitrogen and stirred using a small magnetic bead. A volume of DTT ([…], 12 equiv) was added to the solution, which was incubated with each peptide sample to obtain a working concentration of 0.12 mM DTT and 0.010 mM peptide. Aliquots of 200 µL were collected at different time intervals and analyzed using analytical HPLC vials (0 min was used as controls without DTT) after quenching the DTT with 10 µL of H2O (pH = 2). The aliquots were run on analytical HPLC with detection at 214 nm.

[2] = system: RWPE-1, PC3, LNCap, Du-145 cell lines; assay: MTS cell viability, range over four cell lines; format: cell-based, human; conditions: 5 µM, 72 h incubation
From the text: (§2) Human epithelial prostate cell line (RWPE-1, ATCC No. CRL-11610), human prostate cancer cell line (Human prostate carcinoma DU-145, ATCC No. HTB-81), human adenocarcinoma PC3, ATCC No. CRL-1435), androgen-sensitive human prostate adenocarcinoma cells (LNCaP, ATCC No. CRL-1740), and castration-resistant LNCaP-derived C4-2 (ATCC No. CRL-1595) were purchased from American Type Culture Collection (ATCC), Manassas, VA, USA. All the media, serum, and antibiotics were bought from American Type Culture Collection (ATCC) (Manassas, VA, USA) and Sigma life-science (St. Louis, MO, USA). Keratinocytes SFM (1×) with EGF + BPE was bought from Gibco life technologies (Thermo Fisher Scientific), Gaithersburg, MD, USA. CellTiter 96 was bought from Promega, Madison, WI, USA. Dithiothreitol (DTT) was bought from Thermo Fisher scientific, Carlsbad, CA, USA, and TGF-β was bought from Abcam, Boston, MA, USA.
(§3) Cell-proliferation assay using MTS reagent was conducted against five cell lines (RWPE-1, PC3, DU-145, LNCaP, and, C4-2). Cells were seeded into 96-well plates (5 × 10^3 cells for all the cells) and incubated with 100 µL of complete medium (RPMI-1640 for RWPE-1, DU-145, LNCaP, and C4-2; DMEM for PC3) overnight at 37 °C with 5% CO2. Various concentrations (0, 0.06, 0.6, 6, 60, 600 μM) of the peptide solution (20 μL) were added to cells to yield the final concentrations of peptide (0, 0.01, 0.1, 1, 10, 100 μM). The cells were kept in an incubator (37 °C, 5% CO2) for 24, 48, or 72 h accordingly for different treatment time responses. […] The absorbance was obtained at 490 nm using SpectraMax M2 microplate reader to detect the formazan product. […] The percentage of cell viability was calculated by [(OD value of cells treated with the test mixture of compounds) − (OD value of culture medium)] / [(OD value of control cells) − (OD value of culture medium)] × 100%. […] Cell viability was determined by measuring the absorbance at 490 nm using SpectraMax M2 microplate spectrophotometer, as mentioned above.

[3] = system: C4-2 cells with TGF-β treatment (EDB-FN overexpression); assay: MTS cell viability of C4-2 cells treated with TGF-β to overexpress EDB-FN; format: cell-based, human; conditions: C4-2, TGF-β 10 ng/mL for 3 days; for decrease in cell viability in TGF-β treated cells as compared to untreated cells: after 72 h
Protocol: Cell-proliferation assay using MTS reagent was conducted against five cell lines (RWPE-1, PC3, DU-145, LNCaP, and, C4-2). Cells were seeded into 96-well plates (5 × 10^3 cells for all the cells) and incubated with 100 µL of complete medium (RPMI-1640 for RWPE-1, DU-145, LNCaP, and C4-2; DMEM for PC3) overnight at 37 °C with 5% CO2. Various concentrations (0, 0.06, 0.6, 6, 60, 600 μM) of the peptide solution (20 μL) were added to cells to yield the final concentrations of peptide (0, 0.01, 0.1, 1, 10, 100 μM). The cells were kept in an incubator (37 °C, 5% CO2) for 24, 48, or 72 h accordingly for different treatment time responses. Then, a CellTiter 96 aqueous solution (20 μL) was added to each well and incubated for 4 h under the same condition. The absorbance was obtained at 490 nm using SpectraMax M2 microplate reader to detect the formazan product. Wells containing cells in the absence of any peptide were used as a control. The percentage of cell viability was calculated by [(OD value of cells treated with the test mixture of compounds) − (OD value of culture medium)] / [(OD value of control cells) − (OD value of culture medium)] × 100%. […] Cell viability was determined by measuring the absorbance at 490 nm using SpectraMax M2 microplate spectrophotometer, as mentioned above.
To compare the cytotoxicity of compounds using treatment of TGF-β, the cells were culture, and 8000 cells (RPWE-1, PC3, DU-145, LNCap, and C4-2) were added in 120 μL per well with TGF-β treatment. Cells were exposed to TGF-β at 10 ng/mL for 3 days. Then cells were seeded in the corresponding medium (DMEM containing 10% FBS and 1% penicillin–streptomycin for DU-145, LNCaP, and PC3; keratinocyte containing 0.1% FBS without antibiotics for RWPE-1), 24 h prior to the experiment. Then, MTS assay was followed up, as mentioned in 3.5.1.

C4-2 = assay: MTS cell viability assay, C4-2 without TGF-β; format: cell-based, human; conditions: C4-2 without TGF-β, 24–72 h
From the text: as §2, §3

[4] = Stability in PBS at different pH; format: physicochemical; conditions: pH values ranging from 6.5 to 7.4 (method: 6.8, 7.0, 7.4), 37 °C, aliquots at 4, 24, 84 h, analytical RP-HPLC 490 nm, % remaining from AUC
Protocol: as §1

PC3 = assay: MTS cell viability assay, PC3; format: cell-based, human; conditions: PC3, 2 h incubation, 0.01-100 µM in 5% DMSO
From the text: as §2, §3

Human cathepsin B = biological target: T1, Human cathepsin B (Homo sapiens, UniProt P07858); assay: Hydrolysis with cathepsin B enzyme; format: in vitro ADME; conditions: activated human cathepsin B, 50 mM acetate buffer pH 5.0 with 1 mM EDTA, 8 µL of 1 mM conjugate per 200 µL, HPLC 214/490 nm and MALDI-TOF
T1 construct: purchased Athens Research Lot # CB2016-02 (a lot number; no catalogue number given)
Protocol: Human cathepsin B (CTSB, Lot # CB2016-02 from Athens Research, Athens, GA, USA) was used to hydrolyze the cathepsin linker GFLG in conjugated peptide 13. A stock solution of cathepsin B enzyme (0.434 µg/µL) was prepared using 50 mM acetate (pH 5.0) buffer with 1 mM EDTA. The activation buffer was separately prepared using 30 mM DTT and 15 mM EDTA in H2O. An aliquot of 2.25 µL of cathepsin B stock was activated with 5 µL of activation buffer for 15 min at room temperature then diluted with 1.185 mL of acetate buffer and aliquoted into different tubes with 200 µL each. Further 8 µL of 1 mM of conjugated peptide 13 was added to aliquots and incubated for various time intervals. Then, the reaction was quenched by boiling to denature cathepsin B for 10 min. A 400 µL of cold methanol was added to precipitate the proteins followed by centrifugation of sample 17× g (13,300 rpm) for 10 min. A supernatant (500 µL) was collected, evaporated, and reconstituted with 300 µL of HPLC solvent A (H2O with 0.1% TFA). The eluent fraction from HPLC was further collected and analyzed using MALDI-TOF mass spectrometry to confirm the hydrolysis of the conjugate.

[5] = Stability in 25% human serum; format: in vitro ADME; conditions: 25% human serum in RPMI-1640, 37 °C, conjugate 125 µM, aliquots 2-120 min, methanol precipitation, analytical HPLC, trendline R^2 0.978, each point average of three readings
Protocol: The stability was performed using 25% human serum. 325 µL of RPMI-1640 media was incubated with 125 µL of human serum at 37 °C in a water bath. Then 50 µL of 125 µM of conjugate 13 was added to the RPMI and serum. The control experiment was performed without conjugate using an aqueous 5% DMSO. Several aliquots (55 µL) were removed at 2, 5, 10, 15, 30, 60, 90, and 120 min. The aliquots were added to 120 µL of cold methanol to precipitate the serum proteins with vigorous mixing using vortex and kept at ice for 10 min. Then, the samples were centrifuged at 17× g (13,300 rpm) for 10 min to get a pellet of the insoluble peptide. The supernatant was collected and analyzed on analytical HPLC, as mentioned before.

Compound | cell proliferation (cell viability), range over all four cell lines [2] | decrease in cell viability in TGF-β treated cells as compared to untreated cells [3] | cytotoxicity compared to drug alone (C4-2) | toxicity at or below 10 µM (PC3) | also measured
CC(C)[C@@H]1NC(=O)[C@H]([C@@H](C)O)NC(=O)[C@@H](N)CCCCNC(=O)CC[C@@H](C(N)=O)NC(=O)[C@H](CC(=O)O)NC(=O)[C@H](C)NC(=O)[C@H](CO)NC(=O)[C@H]([C@@H](C)O)NC(=O)[C@H](CCCNC(=N)N)NC1=O [compound 8] (H-KTVRTSADE-NH2; lactam 1-9) |  |  |  |  | half-life / stability under redox conditions (DTT) [1]: > 8 h and 8 h
CC(=O)O[C@@]12CO[C@@H]1C[C@H](O)[C@@]1(C)C(=O)[C@H](O)C3=C(C)[C@@H](OC(=O)[C@H](O)[C@@H](NC(=O)OC(C)(C)C)c4ccccc4)C[C@@](O)([C@@H](OC(=O)c4ccccc4)[C@H]21)C3(C)C [Doce, docetaxel, reference compound] | 54–61% | 16% |  |  | 
COc1cccc2c1C(=O)c1c(O)c3c(c(O)c1C2=O)C[C@@](O)(C(=O)CO)C[C@@H]3O[C@H]1C[C@H](NC(=N)CCCSSC[C@H](N)C(=O)NCC(=O)N[C@@H](Cc2ccccc2)C(=O)N[C@@H](CC(C)C)C(=O)NCC(=O)NCCCCCC(=O)N[C@H]2CCCCNC(=O)CC[C@@H](C(N)=O)NC(=O)[C@H](CC(=O)O)NC(=O)[C@H](C)NC(=O)[C@H](CO)NC(=O)[C@H]([C@@H](C)O)NC(=O)[C@H](CCCNC(=N)N)NC(=O)[C@H](C(C)C)NC(=O)[C@H]([C@@H](C)O)NC2=O)[C@H](O)[C@H](C)O1 [compound 13] (H-C(Doxorubicin(Traut))GFLG[Ahx]KTVRTSADE-NH2; lactam 7-15) | 25–35% | 17% | less cytotoxic as compared to drug alone | no significant toxicity | half-life in PBS [4]: ~ 10 h; time within which cathepsin B cleaves the GFLG linker / releases drug (Human cathepsin B): ≤ 5 min; half-life at 12.5 µM [5]: ~0.197 h
COc1cccc2c1C(=O)c1c(O)c3c(c(O)c1C2=O)C[C@@](O)(C(=O)CO)C[C@@H]3O[C@H]1C[C@H](N)[C@H](O)[C@H](C)O1 [Dox, doxorubicin, reference compound] | 20–34% |  |  | no significant toxicity | effect of TGF-β treatment on cytotoxicity compared to TGF-β untreated cells [3]: no observed effect
CC(=O)O[C@@]12CO[C@@H]1C[C@H](O)[C@@]1(C)C(=O)[C@H](O)C3=C(C)[C@@H](OC(=O)[C@H](OC(=O)CCNC(=O)C4CCC(CN5C(=O)CC(SC[C@H](N)C(=O)NCC(=O)N[C@@H](Cc6ccccc6)C(=O)N[C@@H](CC(C)C)C(=O)NCC(=O)NCCCCCC(=O)N[C@H]6CCCCNC(=O)CC[C@@H](C(N)=O)NC(=O)[C@H](CC(=O)O)NC(=O)[C@H](C)NC(=O)[C@H](CO)NC(=O)[C@H]([C@@H](C)O)NC(=O)[C@H](CCCNC(=N)N)NC(=O)[C@H](C(C)C)NC(=O)[C@H]([C@@H](C)O)NC6=O)C5=O)CC4)[C@@H](NC(=O)OC(C)(C)C)c4ccccc4)C[C@@](O)([C@@H](OC(=O)c4ccccc4)[C@H]21)C3(C)C (stereo partly drawn) [compound 14] (H-C(X1)GFLG[Ahx]KTVRTSADE-NH2; lactam 7-15) |  | 10% | less cytotoxic as compared to drug alone |  | 
